Laboratory results reported in ChEMBL document CHEMBL6078666, “Discovery of Novel Coumarin Pleuromutilin Derivatives as Potent Anti-MRSA Agents” (J Med Chem, 2024).
In brackets after ≈: the same amount, converted by molar mass. Activity calls are given as the source filed them. The calls are words filed in the database; no cut-off is given here.

Tests used:
[1] = tested on: Enterococcus faecium; experiment: Ratio of MBC to MIC against vancomycin-resistant Enterococcus faecium clinical isolate 202308456; format: functional
[2] = tested on: Staphylococcus aureus; experiment: Drug resistance, ratio of MIC for Staphylococcus aureus ATCC 33591 after 8 days to MIC for methicillin-resistant Staphylococcus aureus ATCC 33591 after initial exposure; format: functional; conditions: time 8 day
[3] = tested on: Staphylococcus epidermidis; experiment: Antibacterial activity against Staphylococcus epidermidis ATCC 51625 assessed as bacterial growth inhibition measured after 20 hrs by broth dilution method; format: functional
[4] = tested on: Staphylococcus aureus; experiment: Antibacterial activity against Staphylococcus aureus ATCC 25923 assessed as reduction in GFP expression at 1 to 4 times MIC measured after 1 hr by fluorescence microscopy based analysis; format: functional, organism-based
[5] = tested on: Staphylococcus aureus; experiment: Antibacterial activity against methicillin-resistant Staphylococcus aureus clinical isolate 202313160 assessed as bacterial growth inhibition measured after 20 hrs by broth dilution method; format: functional
[6] = tested on: Staphylococcus aureus; experiment: Drug resistance, ratio of MIC for Staphylococcus aureus ATCC 33591 after 9 days to MIC for methicillin-resistant Staphylococcus aureus ATCC 33591 after initial exposure; format: functional; conditions: time 9 day
[7] = tested on: Enterococcus faecium; experiment: Ratio of MBC to MIC against vancomycin-resistant Enterococcus faecium ATCC 51559; format: functional
[8] = tested on: Staphylococcus aureus; experiment: Antibacterial activity against methicillin-resistant Staphylococcus aureus ATCC 33591 infected in female C57 mouse systemic infection model assessed as effective dose; format: functional
[9] = tested on: Staphylococcus aureus; experiment: Ratio of MBC to MIC against methicillin-resistant Staphylococcus aureus ATCC 33591; format: functional
[10] = tested on: Staphylococcus aureus; experiment: Antibacterial activity against methicillin resistant Staphylococcus aureus ATCC 33591 assessed as post antibiotic effect at 2 times MIC by time kill assay; format: functional
[11] = tested on: Staphylococcus aureus; experiment: Induction of morphological changes in methicillin-resistant Staphylococcus aureus ATCC 33591 assessed as changes in cell surface at 1 time MIC measured after 4 hrs by SEM analysis; format: functional, organism-based
[12] = tested on: Staphylococcus aureus; experiment: Antibacterial activity against methicillin-resistant Staphylococcus aureus ATCC 33591 infected in female C57 mouse systemic infection model assessed as reduction in bacterial load in heart at 40 mg/kg, iv administered twice daily and measured after 7 days; format: functional; conditions: time 7 day
[13] = tested on: Staphylococcus aureus; experiment: Antibacterial activity against methicillin-resistant Staphylococcus aureus ATCC 33591 assessed as bacterial growth inhibition measured after 20 hrs by broth dilution method; format: functional
[14] = tested on: Streptococcus pneumoniae; experiment: Ratio of MBC to MIC against penicillin-intermediate Streptococcus pneumoniae ATCC 49619; format: functional
[15] = tested on: Staphylococcus aureus; experiment: Bactericidal activity against methicillin-resistant Staphylococcus aureus ATCC 33591 at 4 to 8 times MIC measured within 24 hrs by time kill assay; format: functional, organism-based
[16] = tested on: Staphylococcus epidermidis; experiment: Antibacterial activity against methicillin-resistant Staphylococcus epidermidis clinical isolate 202409454 assessed as bacterial growth inhibition measured after 20 hrs by broth dilution method; format: functional
[17] = tested on: Staphylococcus aureus; experiment: Antibacterial activity against methicillin-resistant Staphylococcus aureus ATCC 43300 assessed as bacterial growth inhibition measured after 20 hrs by broth dilution method; format: functional
[18] = tested on: Enterococcus faecium; experiment: Antibacterial activity against vancomycin-resistant Enterococcus faecium ATCC 51559 assessed as bacterial growth inhibition measured after 20 hrs by broth dilution method; format: functional
[19] = tested on: Staphylococcus aureus; experiment: Antibacterial activity against methicillin resistant Staphylococcus aureus ATCC 33591 assessed as post antibiotic effect at 4 times MIC by time kill assay; format: functional
[20] = tested on: Staphylococcus epidermidis; experiment: Antibacterial activity against methicillin-resistant Staphylococcus epidermidis clinical isolate 202409139 assessed as bacterial growth inhibition measured after 20 hrs by broth dilution method; format: functional
[21] = tested on: Staphylococcus aureus; experiment: Antibacterial activity against methicillin-resistant Staphylococcus aureus clinical isolate 202311772 assessed as bacterial growth inhibition measured after 20 hrs by broth dilution method; format: functional
[22] = tested on: Enterococcus faecium; experiment: Antibacterial activity against vancomycin-resistant Enterococcus faecium clinical isolate 202308456 assessed as bacterial growth inhibition measured after 20 hrs by broth dilution method; format: functional
[23] = tested on: Enterococcus faecium; experiment: Antibacterial activity against vancomycin-resistant Enterococcus faecium ATCC 700221 assessed as bacterial growth inhibition measured after 20 hrs by broth dilution method; format: functional
[24] = tested on: Staphylococcus epidermidis; experiment: Ratio of MBC to MIC against Staphylococcus epidermidis ATCC 51625; format: functional
[25] = tested on: Streptococcus pneumoniae; experiment: Antibacterial activity against penicillin-resistant Streptococcus pneumoniae ATCC 51916 assessed as bacterial growth inhibition measured after 20 hrs by broth dilution method; format: functional
[26] = tested on: Staphylococcus aureus; experiment: Ratio of MBC to MIC against Staphylococcus aureus ATCC 43300; format: functional
[27] = tested on: Staphylococcus aureus; experiment: Antibacterial activity against methicillin-resistant Staphylococcus aureus ATCC 33591 infected in female C57 mouse systemic infection model assessed as reduction in bacterial load in spleen at 40 mg/kg, iv administered twice daily and measured after 7 days; format: functional; conditions: time 7 day
[28] = tested on: Staphylococcus aureus; experiment: Antibacterial activity against methicillin-resistant Staphylococcus aureus ATCC 33591 infected in female C57 mouse systemic infection model assessed as reduction in bacterial load in liver at 40 mg/kg, iv administered twice daily and measured after 7 days; format: functional; conditions: time 7 day
[29] = tested on: Staphylococcus aureus; experiment: Ratio of MBC to MIC against methicillin-resistant Staphylococcus aureus clinical isolate 202405157; format: functional
[30] = tested on: Staphylococcus aureus; experiment: Ratio of MBC to MIC against methicillin-resistant Staphylococcus aureus clinical isolate 202311772; format: functional
[31] = tested on: Staphylococcus aureus; experiment: Antibacterial activity against methicillin-resistant Staphylococcus aureus clinical isolate 202405157 assessed as bacterial growth inhibition measured after 20 hrs by broth dilution method; format: functional
[32] = tested on: Staphylococcus aureus; experiment: Antibacterial activity against methicillin-resistant Staphylococcus aureus ATCC 33591 infected in female C57 mouse systemic infection model assessed as reduction in bacterial load in kidney at 40 mg/kg, iv administered twice daily and measured after 7 days; format: functional; conditions: time 7 day
[33] = tested on: Enterococcus faecium; experiment: Ratio of MBC to MIC against vancomycin-resistant Enterococcus faecium ATCC 700221; format: functional
[34] = tested on: Staphylococcus aureus; experiment: Antibacterial activity against methicillin-resistant Staphylococcus aureus ATCC 33591 infected in female C57 mouse systemic infection model assessed as reduction in bacterial load in lung at 40 mg/kg, iv administered twice daily and measured after 7 days; format: functional; conditions: time 7 day
[35] = tested on: Streptococcus pneumoniae; experiment: Antibacterial activity against penicillin-intermediate Streptococcus pneumoniae ATCC 49619 assessed as bacterial growth inhibition measured after 20 hrs by broth dilution method; format: functional

For C=C[C@]1(C)C[C@@H](OC(=O)CSCCN(CC)CC)[C@]2(C)[C@H](C)CC[C@]3(CCC(=O)[C@H]32)[C@@H](C)[C@@H]1O [TIAMULIN], the Ratio [1] was 4, the “fold change (FC)” value [2] was 4 and the MIC [3] was 0.125 µg/mL (≈ 0.253 µM). For the same compound, the Activity [4] was “Active”, the MIC [5] was 1 µg/mL (≈ 2.03 µM) and the “fold change (FC)” value [6] was 64. For the same compound, the Ratio [7] was 2, the ED50 [8] was 28.9 mg/kg and the Ratio [9] was 4. The PAE [10] was 1.07 h, the Activity [11] was “inactive” and the Activity [12] was 2.05 log10CFU/g. For the same compound, the MIC [13] was 0.5 µg/mL (≈ 1.01 µM), the Ratio [14] was greater than 4 and the Activity [15] was “Active”. It also gave an MIC [16] of 2 µg/mL (≈ 4.05 µM), an MIC [17] of 0.5 µg/mL (≈ 1.01 µM) and an MIC [18] of 0.5 µg/mL (≈ 1.01 µM). It also gave a PAE [19] of 1.19 h, an MIC [20] of 1 µg/mL (≈ 2.03 µM) and an MIC [21] of 2 µg/mL (≈ 4.05 µM). It also gave an MIC [22] of 2 µg/mL (≈ 4.05 µM), an MIC [23] of 0.125 µg/mL (≈ 0.253 µM) and a Ratio [24] greater than 4. It also gave an MIC [25] of 0.125 µg/mL (≈ 0.253 µM), a Ratio [26] greater than 4 and an Activity [27] of 0.7 log10CFU/g. For the same compound, the Activity [28] was 0.28 log10CFU/g, the Ratio [29] was 4 and the Ratio [30] was 4. It also gave an MIC [31] of 2 µg/mL (≈ 4.05 µM), an Activity [32] of 1.39 log10CFU/g and a Ratio [33] greater than 4. The Activity [34] was 1.23 log10CFU/g and the MIC [35] was 0.25 µg/mL (≈ 0.506 µM).
